What was measured:
[1] = system: bleo-induced lung injury in the mouse; assay: Lung hydroxyproline (collagen deposition) after bleo-induced lung injury; assay type: in vivo; details: for lung hydroxyproline levels: 50 μg Bleo intranasally, 10 mM peptide in 0.1 ml osmotic pump i.p. one day later, lungs after 21 days
Procedure: FIGS. 10A and 10B are graphs showing the effect of PP-1 on fibrosis following bleo-induced lung injury in the mouse. […] 24 h after bleo, 0.1 ml osmotic pump filled with 10 mM PP-1 (designated “Bleo+PP” in Figures) or CP1 control scrambled peptide (“Bleo+CP1”) were implanted intraperitoneally. Lungs were harvested after 21 days, homogenized and the homogenates were subjected to the analysis of hydroxyproline or desmosine levels.
Anesthetized mice received intranasal bleomycin HCl solution containing 40 μg/50μl in sterile saline solution. After 24 h, 7 days or 14 days 10 mM PP-1 (“Bleo+PP-1”) or control peptide (Bleo+CP-1) were given ip using a 0.1 ml osmotic pump. Mice were sacrificed and lungs excised 21 days later. Lung homogenates were analyzed for hydroxyproline. Results are expressed a % of control hydroxyproline concentration.
Anesthetized mice received intranasal bleomycin HCl solution containing 40 μg/50 μl in sterile saline solution. After day 7, 10 mM peptide PP-2 (“Bleo+PP-2”) or control peptide (“Bleo+CP-2) were given intraperitoneally using a 0.1 ml osmotic pump. Lungs were excised after 21 days, lungs were homogenized and the homogenates were analyzed for hydroxyproline. Results are expressed a % of control hydroxyproline concentration.
The hPro content of the whole mouse lungs tissues were measured using the technique of Woessner J F, 1961, Arch. Biochem. Biophys. 93:440-7). Lung tissue from each animal was homogenized in 1.0 ml of extraction buffer. One ml 12N HCl was added, and the samples were hydrolyzed at 110° C. for 24 h. After cooling, 5 μl of the samples were mixed with 5 μl of citrate-acetate buffer (5% citric acid, 1.2% glacial acetic acid, 7.25% sodium acetate and 3.4% sodium hydroxide) and 100 μl of chloramine-T solution (1.4% chloramine-T, 10% N-propanol, and 80% citrate acetate buffer) in 96 well plates. The mixture was incubated for 20 min at room temperature. A total of 100 μl of Ehrlich's solution (2.5 g p-dimethylaminobenzaldehyde added to 9.3 ml of n-propanol and 3.9 ml of 70% perchloric acid) was added to each well and the plates incubated at 65° C. for 18 min. The absorbance of each sample was measured at 550 nm. Standard curves were generated for each experiment using a known concentration of reagent hPro. Results were expressed as % changes in hPro content (with total hPro content of saline-treated control mouse lungs considered 100%).
Lungs were harvested after 21 days, homogenized and the homogenates were subjected to the analysis of hydroxyproline as above (FIG. 10A) or desmosine (FIG. 10B). The effect of PP-1 on fibrosis in bleo-induced mouse lung injury was evaluated. Mice were treated with saline or 50 μg Bleo intranasally were implanted one day later with, 0.1 ml osmotic pumps i.p. The pumps were filled with either 10 mM (2.92 mg/100 μl) PP-1 (“Bleo+PP-1”) or control scrambled peptide CP-1 (“Bleo+CP-1”).

[2] = system: Src kinase; details: Beas2B cells, bleo 40 μg/ml, 24 h, Western blot
Procedure: Cell lysates were analyzed for activating tyrosine (Y418) phosphorylation and inhibitory tyrosine (Y529) phosphorylation by Western blotting using phospho-specific antibodies. The same membrane was stripped and analyzed for total Src (Src-2) kinase and β-actin expression by Western blotting using specific antibodies.

[3] = system: PAI-1; assay: Western blot of BAL fluid and lung homogenates of bleo-treated mice: PAI-1; assay type: in vivo, mouse; details: 40 μg bleomycin intranasally, day 7; for PAI-1 expression in lung homogenates: 10 mM peptide i.p. by 0.1 ml osmotic pump after 24 h
Procedure: (§1) Mice were treated intranasally with 50 μl saline (SAL; control) or an equal volume of a 40 μg bleomycin solution (Bleo). After 24 h, 10 mM PP-1 (“Bleo+PP-1”) or control peptide (Bleo+CP-1) were given intraperitoneally using a 0.1 ml osmotic pump. Lungs were excised on day 7, bronchoalveolar lavage (BAL) fluid (“B”), lung homogenates (“H”) and membrane proteins (uPAR) were analyzed by Western blotting using antibodies specific for the murine proteins. (The same blot (“H”) was then stripped and analyzed for β-actin confirm equivalent loading of the lanes)
(§2) Mice were treated intranasally with 50 μl saline or an equal volume of a 40 μg bleomycin solution. After 24 h, 10 mM PP-1 or the same concentration of control peptide CP-1 were given intraperitoneally using a 0.1 ml osmotic pump. Lungs were excised on day 7.
Lung tissue was chopped into small pieces with fine scissors and rinsed 3× with PBS. The tissues were then homogenized in 1 ml of extraction buffer (25 mM Tris-HCl, pH 7.9. 0.5 mM EDTA and 0.1 mM PMSF) and the homogenate was centrifuged at 12,000 g for 15 min at 4° C. The supernatant was removed and referred to as the crude extract. Protein content was measured using a BioRad protein assay kit. Cytosolic proteins were separated by SDS-PAGE and transferred to a nitrocellulose membrane which was blocked with 1% BSA in a wash buffer for 1 h at room temperature followed by overnight incubation with antibodies specific for uPA, PAI-1 or p53 in the same buffer at 4° C. Protein was detected by enhanced chemiluminescence (ECL). Membranes were stripped and immunoblotted for β-actin.
Mice were treated intranasally with saline (controls) are indicated (SAL). Mice receiving an equal volume of a 40 μg bleomycin solution are indicated (Bleo). Mice given PP-1 are indicated (PP-1) and those given control peptide are indicated (CP-1). BAL fluid is indicated (B), and lung homogenates (H) and membrane proteins (uPAR). Blots were probed with antibodies specific for the relevant murine proteins. (The same blot (H) was later stripped and analyzed for β-actin confirm equivalent loading of the lanes)

[4] = system: uPAR; assay: Western blot of lung membrane proteins of bleo-treated mice: uPAR; assay type: in vivo, mouse; details: 40 μg bleomycin intranasally, 10 mM peptide i.p. by 0.1 ml osmotic pump after 24 h, day 7
Procedure: as §1, §2
After preparation of the cytosolic extract, above, the pellet obtained after the initial centrifugation was resuspended in a membrane extraction buffer containing β-D-glucopyranoside and the suspension was homogenized for 5 to 10 min. […] The resulting clarified supernatant was analyzed for uPAR expression by Western blotting with anti-uPAR antibody and detected by ECL.
(§3) Mice were treated intranasally with saline (controls) are indicated (SAL). […] (The same blot (H) was later stripped and analyzed for β-actin confirm equivalent loading of the lanes)

[5] = system: bleomycin-induced lung epithelial cell (LEC) apoptosis; assay: TUNEL staining for apoptosis of lung sections of bleo-treated mice; assay type: in vivo, mouse; details: for Lung epithelial cell apoptosis: appearance of cells / Lung epithelial cell apoptosis: cell death: bleo-treated animals, peptide one day after bleo; for Lung epithelial cell apoptosis: appearance of cells: lung tissue day 21; for Lung epithelial cell apoptosis: cell death: lung tissue day 21, TUNEL; for apoptosis (TUNEL positive cells): peptide 4.5 μM i.p. on day 1 and 2, bleomycin 40 μg/50 μl intranasal on day 2, 24, 48 and 72 h
Procedure: The mice were sacrificed 24, 48 and 72 h later. Lungs were excised, inflated and fixed in formalin, and […] sections were analyzed by TUNEL staining. […]

[6] = system: p53; assay: Western blot of lung homogenates of bleo-treated mice: p53; assay type: in vivo, mouse; details: 40 μg bleomycin intranasally, 10 mM peptide i.p. by 0.1 ml osmotic pump after 24 h, day 7
Procedure: as §1, §2
(§4) Lung tissue was chopped into small pieces with fine scissors and rinsed 3× with PBS. The tissues were then homogenized in 1 ml of extraction buffer (25 mM Tris-HCl, pH 7.9. 0.5 mM EDTA and 0.1 mM PMSF) and the homogenate was centrifuged at 12,000 g for 15 min at 4° C. […] Protein content was measured using a BioRad protein assay kit. […] Protein was detected by enhanced chemiluminescence (ECL). […]
as §3

[7] = system: uPA; assay: Western blot of lungs of bleo-treated mice: uPA; assay type: in vivo, mouse; details: 40 μg bleomycin intranasally, 10 mM peptide i.p. by 0.1 ml osmotic pump after 24 h, day 7
Procedure: as §1, §2, §4, §3

Substance | lung hydroxyproline levels [1] | bleomycin-induced collagen deposition (hydroxyproline, % of control) ([1]; bleomycin 40 μg/50 μl intranasal, 10 mM peptide i.p. osmotic pump after 24 h, 7 days or 14 days, lungs 21 days) | Src kinase activation (Y418 / Y529 phosphorylation) [2] | PAI-1 expression in lung homogenates [3] | uPAR levels in lung (membrane proteins) [4] | bleo-induced mouse lung injury (TUNEL staining for apoptosis) ([5]; bleo 50 μg/ml intranasal, peptide intranasally 3.35 μM (375 μg/50 μl) on day 2, 4 and 6, lungs after 21 days) | Lung epithelial cell apoptosis: appearance of cells [5] | Lung epithelial cell apoptosis: cell death [5] | protection of LECs from bleo-induced lung injury ([5]; conclusion from Table 3, day 21) | bleo-induced LEC apoptosis (apoptotic scores) ([5]; i.p. 0.1 ml osmotic minipump, 10 mM peptide, one day after intranasal bleo, lungs after 16 days) | apoptosis (TUNEL positive cells) [5] | p53 expression in lung homogenates [6] | uPA levels in lung [7] | PAI-1 in BAL fluid [3]
DGIWKASFTTFTVTKYWFYR [PP-1, residues 82-101 of human Cav-1, the caveolin-1 scaffolding domain] | significantly reduced, to normal levels | significantly inhibited bleomycin-induced collagen deposition and lung fibrosis | inhibited bleo-induced activation of Src Y418 through phosphorylation of Src Y529 | inhibited the increased p53 and PAI-1 expression | enhanced the suppressed uPA and uPAR levels | prevented bleo-induced mouse lung injury in vivo | No fibrosis, | 12% cell | > 90% | protect against bleo-induced LEC apoptosis | reversed bleomycin-induced apoptosis | inhibited the increased p53 and PAI-1 expression | enhanced the suppressed uPA and uPAR levels | –
Bleomycin | significant increase in lung hydroxyproline or desmosine levels | – | Src kinase activation through phosphorylation of Src Y418 | increased | suppression | – | Fibrotic cells, | 80% cell death | – | – | increased apoptosis (TUNEL positive cells) as early as 24 h after exposure | increased | suppression | increased
